# Measured values as given in patent publication US20020115642A1, “Beta-lactam antibiotics” (priority 2000, published 2002).
# Where two headings read alike, the source gives them in different places.
# How the values were obtained:
# E. coli N = assay: Susceptibility testing (MIC, modified NCCLS method); format: cell-based, Escherichia coli; details: Escherichia coli; E. coli, BLA neg., drug alone; read-out: MIC
# Procedure: (§1) The NCCLS (National Committee for Clinical Laboratory Standards) method to determine MIC's of antimicrobial compounds was modified for high-throughput screening. All stocks of tested compounds were prepared in either water or in dimethylsulfoxide (DMSO), depending on the solubility. […] Briefly 20 2-fold serial dilutions of testing compounds from the highest concentration were made in a 384-well microtiter plate. Each well was inoculated with testing bacteria in broth to a final concentration of approximately 1-1.5×10^6 cells/ml. Bacterial growth was determined by the increase of optical density at 600 nm using a microplate reader (Tecan SpectraFluor Plus).
# E. coli/TEM-1 = assay: as above; format: cell-based, Escherichia coli; details: Escherichia coli
# Procedure: as §1
# Staphylococcus aureus = assay: as above; format: cell-based; details: Staphylococcus aureus
# Procedure: as §1
# E. faecalis = assay: as above; format: cell-based, Enterococcus faecalis; details: for MIC: Enterococcus faecalis, read-out: GM* MIC (geometric mean)
# Procedure: as §1
# E. cloacae = assay: as above; format: cell-based, Enterobacter cloacae; details: E. cloacae (1)
# Procedure: as §1
# E. aerogenes = assay: as above; format: cell-based, Enterobacter aerogenes; details: E. aerogenes (5)
# Procedure: as §1
# K. pneumoniae = assay: as above; format: cell-based, Klebsiella pneumoniae; details: Klebsiella pneumoniae; K. pneumoniae (5); read-out: GM* MIC (geometric mean)
# Procedure: as §1
# S. epidermidis = assay: as above; format: cell-based, Staphylococcus epidermidis; details: for MIC: Staphylococcus epidermidis
# Procedure: as §1
# S. pneumoniae = assay: as above; format: cell-based, Streptococcus pneumoniae; details: S. pneumoniae (3)
# Procedure: as §1
# E. faecium = assay: as above; format: cell-based, Enterococcus faecium; details: for MIC: Enterococcus faecium, read-out: GM* MIC (geometric mean)
# Procedure: as §1
# E coli R(Tem1) = assay: Inhibition of bacterial growth (IC50, OD600); format: cell-based; details: for IC50 ratio N/R: N versus R (Tem1)
# Procedure: Compounds of the invention were tested for their ability to inhibit the growth of β-lactam sensitive and resistant bacteria by contacting samples of such cells with various dilutions of the compositions, incubating the cells at 37° C. in the presence of these compositions and then measuring the number of viable cells present in each sample.
# Two compounds of the invention were tested, Compound (9) and Compound (1l). Incubation of bacterial cells was performed for two time periods, 10 hours and 20 hours. Four E. coli strains were used for the test. These strains were all derived from the strain NovaBlue (NovaGen Inc., Madison, Wis.). E. coli N is a normal, β-lactam sensitive strain. E coli R(Tem1) is a β-lactam resistant strain with a β-lactamase gene on a plasmid. E. coli C(Tem4O-15) is a β-lactam resistant strain with a β-lactam inhibitor resistant β-lactamase gene, and E. coli C(Tem3 1-27) is β-lactam resistant strain with an alternative β-lactam inhibitor resistant β-lactamase gene.
# The various E. coli strains were each treated with dilutions of the compounds of the invention. […] The number of viable cells at each time point was determined by measuring the OD600 of each cell sample.
# After measuring the number of viable cells present, the IC50 for each sample was determined. […] In addition, both compounds were effective at inhibiting the growth of both antibiotic sensitive and resistant bacterial cells.
# [1] = system: UDP-glucuronosyltransferase; assay: Glucuronidation assay; format: in vitro ADME, human; details: 100 μM, 100 μg human liver microsome, 37° C., 1 hour, TLC
# Procedure: Assays were conducted as outlined in Example 15, using 100 μM Compound (9), triclosan or cephalothin incubated with 100 μg human liver microsome at 37° C. for 1 hour. The reactants were analyzed on TLC plate, and glucuronidated compounds were visualized by MolecularDynamics Storm 820.
# Glucuronidation assay was performed based on modified procedure from Bansal and Gessner (1980) Anal. Biochem. 109:321-329. Reactions were performed in 50 mM Tris buffer, pH 7.6, containing 10 mM MgCl2, ImM UDPGA, 0.04 μCi of ^14C-UDPGA, 0.1 mM substrate, and 100 μg human liver microsome. The final volume was 100 μL. Reactions were incubated at 37° C. for one hour and the reactants extracted with 200 μL of 100% ethanol. The protein was removed by centrifugation at 12,000×g for 5 minutes in an Eppendorf centrifuige. The supernatant was dried and resuspended in 30 μL of 100% methanol and spotted on a Whatman glass-backed linear k TLC plate. Chromatography was performed in a mixture of 1-butanol/acetone/acetic acid/water (35:35:10:20). The TLC plate was then dried and exposed to phosphor imager overnight, then monitored by imaging (MolecularDynamics Storm 820).
# [2] = system: Vancomycin-resistant E. faecalis or E. faecium; assay: Susceptibility testing (MIC, modified NCCLS method); format: cell-based, Enterococcus faecalis, Enterococcus faecium
# Procedure: as §1
# [3] = system: O=C(Cc1cccs1)N[C@@H]1C(=O)N2C(C(=O)O)=C(/C=C/c3ccc([N+](=O)[O-])cc3[N+](=O)[O-])CS[C@H]12; assay: purified protein, by the assay type; details: other: progress curve analysis at 16 μM Compound (9) and […] TEM-1 β-lactamase, 37° C.
molecule,measurement,setting,value
"CC(=O)OCC1=C(C(=O)O)N2C(=O)[C@@H](NC(=O)Cc3cccs3)[C@H]2SC1 [Cephalothin, cephalothin, reference compound]",MIC,E. coli N,16 µg/mL
same,MIC,E. coli/TEM-1,> 32 µg/mL
same,MIC,"Staphylococcus aureus; ATCC11632, ATCC 11632, methicillin-sensitive, β-lactamase Neg./Pos., read-out: MIC",0.2 µg/mL
same,MIC,"Staphylococcus aureus; ATCC13301, ATCC 13301, methicillin-sensitive, β-lactamase Positive, read-out: MIC",6.25 µg/mL
same,MIC,"Staphylococcus aureus; ATCC14154, ATCC 14154, methicillin-sensitive, β-lactamase Positive, read-out: MIC",0.39 µg/mL
same,MIC,"Staphylococcus aureus; ATCC33591, ATCC 33591, methicillin-resistant, β-lactamase Positive, read-out: MIC",0.56 µg/mL
same,MIC,"Staphylococcus aureus; ATCC33592, ATCC 33592, methicillin-sensitive, β-lactamase Positive, read-out: MIC",1.56 µg/mL
same,MIC,"Staphylococcus aureus; ATCC33593, ATCC 33593, methicillin-resistant, β-lactamase Positive, read-out: MIC",0.78 µg/mL
same,MIC,"Staphylococcus aureus; ATCC33594, ATCC 33594, methicillin-sensitive, β-lactamase Positive, read-out: MIC",0.2 µg/mL
same,MIC,"Staphylococcus aureus; ATCC43300, ATCC 43300, methicillin-sensitive, β-lactamase Neg./Pos., read-out: MIC",0.39 µg/mL
same,MIC,"Staphylococcus aureus; ATCC700260, ATCC 700260, methicillin-sensitive, β-lactamase Positive, read-out: MIC",0.39 µg/mL
same,MIC,"Staphylococcus aureus; ATCC700698, ATCC 700698, methicillin-resistant, β-lactamase Negative, read-out: MIC",100 µg/mL
same,MIC,"Staphylococcus aureus; ATCC700699, ATCC 700699, methicillin-resistant, β-lactamase Negative, read-out: MIC",100 µg/mL
same,MIC,"Staphylococcus aureus; ATCC700787, ATCC 700787, methicillin-resistant, β-lactamase Positive, read-out: MIC",50 µg/mL
same,MIC,"Staphylococcus aureus; ATCC700788, ATCC 700788, methicillin-resistant, β-lactamase Positive, read-out: MIC",3.13 µg/mL
same,MIC,"Staphylococcus aureus; ATCC700789, ATCC 700789, methicillin-resistant, β-lactamase Positive, read-out: MIC",6.25 µg/mL
same,MIC,"Staphylococcus aureus; MRSA, MRSA tested (7), read-out: Geometric mean of MIC",10.2 µg/mL
same,MIC,"Staphylococcus aureus; MSSA, MSSA tested (7), read-out: Geometric mean of MIC",0.58 µg/mL
same,MIC,"Staphylococcus aureus; S. aureus (14), read-out: Geometric mean of MIC",2.45 µg/mL
same,MIC,"Staphylococcus aureus; S. aureus β-lactamase negative (2), read-out: Geometric mean of MIC",100 µg/mL
same,MIC,"Staphylococcus aureus; S. aureus β-lactamase positive (12), read-out: Geometric mean of MIC",1.32 µg/mL
same,MIC range,E. faecalis; E. faecalis (7),25 to 100 µg/mL
same,MIC,E. faecalis; E. faecalis (7),61 µg/mL
same,MIC range,E. cloacae,>100 µg/mL
same,MIC,"E. cloacae; Enterobacter cloacae, read-out: GM* MIC (geometric mean)",> 100 µg/mL
same,MIC range,E. aerogenes,>100 µg/mL
same,MIC,"E. aerogenes; Klebsiella aerogenes, read-out: GM* MIC (geometric mean)",> 100 µg/mL
same,MIC,K. pneumoniae,> 66 µg/mL
same,MIC range,S. epidermidis; S. epidermidis (5),0.2 to 25 µg/mL
same,MIC,"S. epidermidis; S. epidermidis (5), read-out: GM* MIC (geometric mean)",1.81 µg/mL
same,MIC range,S. pneumoniae,0.06 to 2 µg/mL
same,MIC,"S. pneumoniae; Streptococcus pneumoniae, read-out: GM* MIC (geometric mean)",0.247 µg/mL
same,MIC range,E. faecium; E. faecium (6),>100 µg/mL
same,MIC,E. faecium; E. faecium (6),> 100 µg/mL
"Oc1cc(Cl)ccc1Oc1ccc(Cl)cc1Cl [Triclosan, triclosan, reference compound]",IC50 ratio N/R,E coli R(Tem1); 10 hours,N/R = 1555x
same,IC50 ratio N/R,E coli R(Tem1); 20 hours,N/R = 2.5x
same,IC50,"E coli R(Tem1); Escherichia coli, 10 h, read-out: IC50 10 hours, Cell R (Tem1), 10 hours",0.166 nM
same,IC50,"E coli R(Tem1); read-out: IC50 10 hours, Cell R (Tem1), 10 hours",0.24 nM
same,glucuronidation by human liver microsome,[1],glucuronidated
"CN[C@H](CC(C)C)C(=O)N[C@H]1C(=O)N[C@@H](CC(N)=O)C(=O)N[C@H]2C(=O)N[C@H]3C(=O)N[C@H](C(=O)N[C@H](C(=O)O)c4cc(O)cc(O)c4-c4cc3ccc4O)[C@H](O)c3ccc(c(Cl)c3)Oc3cc2cc(c3O[C@@H]2O[C@H](CO)[C@@H](O)[C@H](O)[C@H]2O[C@H]2C[C@](C)(N)[C@H](O)[C@H](C)O2)Oc2ccc(cc2Cl)[C@H]1O [Vancomycin, vancomycin, reference compound]",MIC,"Staphylococcus aureus; ATCC11632, ATCC 11632, methicillin-sensitive, β-lactamase Neg./Pos.",0.25 µg/mL
same,MIC,"Staphylococcus aureus; ATCC13301, ATCC 13301, methicillin-sensitive, β-lactamase Positive",0.25 µg/mL
same,MIC,"Staphylococcus aureus; ATCC14154, ATCC 14154, methicillin-sensitive, β-lactamase Positive",0.5 µg/mL
same,MIC,"Staphylococcus aureus; ATCC33591, ATCC 33591, methicillin-resistant, β-lactamase Positive",0.25 µg/mL
same,MIC,"Staphylococcus aureus; ATCC33592, ATCC 33592, methicillin-sensitive, β-lactamase Positive",0.5 µg/mL
same,MIC,"Staphylococcus aureus; ATCC33593, ATCC 33593, methicillin-resistant, β-lactamase Positive",0.5 µg/mL
same,MIC,"Staphylococcus aureus; ATCC33594, ATCC 33594, methicillin-sensitive, β-lactamase Positive",0.5 µg/mL
same,MIC,"Staphylococcus aureus; ATCC43300, ATCC 43300, methicillin-sensitive, β-lactamase Neg./Pos.",0.5 µg/mL
same,MIC,"Staphylococcus aureus; ATCC700260, ATCC 700260, methicillin-sensitive, β-lactamase Positive",1 µg/mL
same,MIC,"Staphylococcus aureus; ATCC700698, ATCC 700698, methicillin-resistant, β-lactamase Negative",2 µg/mL
same,MIC,"Staphylococcus aureus; ATCC700699, ATCC 700699, methicillin-resistant, β-lactamase Negative",4 µg/mL
same,MIC,"Staphylococcus aureus; ATCC700787, ATCC 700787, methicillin-resistant, β-lactamase Positive",8 µg/mL
same,MIC,"Staphylococcus aureus; ATCC700788, ATCC 700788, methicillin-resistant, β-lactamase Positive",2 µg/mL
same,MIC,"Staphylococcus aureus; ATCC700789, ATCC 700789, methicillin-resistant, β-lactamase Positive",2 µg/mL
same,MIC,"Staphylococcus aureus; MRSA, read-out: Geometric mean of MIC, MRSA tested (7)",1.64 µg/mL
same,MIC,"Staphylococcus aureus; MSSA, read-out: Geometric mean of MIC, MSSA tested (7)",0.36 µg/mL
same,MIC,"Staphylococcus aureus; read-out: Geometric mean of MIC, S. aureus (14)",0.86 µg/mL
same,MIC,"Staphylococcus aureus; read-out: Geometric mean of MIC, S. aureus β-lactamase negative (2)",2.83 µg/mL
same,MIC,"Staphylococcus aureus; read-out: Geometric mean of MIC, S. aureus β-lactamase positive (12)",0.94 µg/mL
same,MIC,E. faecalis,> 6.41 µg/mL
same,MIC range,S. epidermidis; S. epidermidis (5),1 to 2 µg/mL
same,MIC,S. epidermidis; read-out: GM* MIC (geometric mean),1.74 µg/mL
same,MIC,S. epidermidis; read-out: MICs of heterogeneous vancomycin resistant strains,2 µg/mL
same,MIC,E. faecium,> 3.49 µg/mL
same,MIC,"[2]; Enterococcus, VRE, read-out: GM* MIC (geometric mean)",> 47.4 µg/mL
same,GM* MIC (geometric mean),[2]; VRE (5),>47.4 µg/mL
TEM-1 β-lactamase (Escherichia coli),Km,[3],15 µM
same,kcat,[3],3.3 s⁻¹
same,kcat/Km,[3],220000 M⁻¹ s⁻¹
